Experimental data as given in a melting point compilation (Tetko et al.; mined from patent text by program, amines drawn as free bases though some values may be those of a salt).

SMILES	melting point
CC(C)(C)c1cc(/C=C/C(=O)COc2ccccc2)cc(C(C)(C)C)c1O	100 to 102 °C
CCCCN(c1nc(NCCN)nc(N(CCCC)C2CC(C)(C)NC(C)(C)C2)n1)C1CC(C)(C)NC(C)(C)C1	140 °C
N#Cc1cccnc1N1CCN(CNC(=O)c2ccccc2)CC1	133 to 136 °C
O=c1c(Cl)c(N2CCC(c3ccccc3)CC2)ccn1Cc1ccc(OC(F)(F)F)cc1	169 °C
CCCCCCCCCCOc1ccc(Cc2cnc(N)nc2N)cc1OC	169 °C
Cn1cc(CS(C)(=O)=O)c(=O)c2cc(F)ccc21	200 to 205 °C
O=C(O)Cn1c(Cc2ccccc2)ccc1-c1ccccc1	137 to 139 °C
Nc1ccc(S(=O)(=O)n2cc(CC3CCNCC3)c3cc(F)ccc32)cc1	162 to 164 °C
COC(=O)C=Cc1ccc(-n2c(C)ccc2C)cc1	73 to 75 °C
Cc1onc(-c2ccccc2)c1-c1ccc(S(=O)(=O)NC(=O)CC(C)(C)S)cc1	138 to 140 °C
O=C(O)C1CCCC2CSc3ccccc3C21 (stereo not given)	200 to 203 °C
COC(=O)C(C)(C)c1ccc2c(c1)c(=O)[nH]c(=O)n2CCCCBr	164 to 165 °C
O=c1c2ccccc2sc2c(Cl)cc(Cl)c(Oc3ccccc3)c12	197 to 198 °C
CC(C)(C)OC1OC(=O)C2C1C2(C)C (stereo not given)	115 °C
c1c(C(CN2CCNCC2)N2CCNCC2)nc(N2CCCC2)nc1N1CCCC1 (stereo not given)	148 to 149 °C
CCOC1=C(N(C(C)=O)C(C)C)C(=O)c2cnn(C)c2C1=O	154 to 155 °C
CC1(C)COC(C(=O)O)OC1	58 to 60 °C
Cc1cc(C)c(Nc2nc(C)ccc2S(=O)(=O)c2cccc(O)c2)c(C)c1	196 to 197 °C
Cn1c(=O)on(-c2ccccc2)c1=O	98 to 99 °C
CN1C(=O)C(c2ccc(OC(F)F)cc2)(c2cccc(C3CC(=O)C3)c2)N=C1N (stereo not given)	68 to 70 °C
CCN(CC)C(=O)c1ccc(OC)cc1	40 to 42 °C
CC1(C)SC2C(N3C(=O)C(C4=CCC=CC4)NC3(C)C)C(=O)N2C1C(=O)O (stereo not given)	186 °C
CC(N)(Cc1c[nH]c2ccccc12)C(=O)NCCc1ccccc1 (stereo not given)	106 to 110 °C
S=c1[nH]ccn1OCc1cccnc1	128 to 129 °C
COc1cc(N)c(C)c(OC)c1OC	49 to 51 °C

SMILES	melting point
O=C1c2cc3nnn(Cc4cnccn4)c(=O)c3cc2OC2CCCN12 (stereo not given)	229 to 231 °C
CC(C)CCOc1cccc2oc(C(=O)O)cc(=O)c12	179 to 180 °C
CCN(C)c1cc(OC)c(C(=O)NC2CCN(Cc3ccccc3)C2)cc1Cl (stereo not given)	76 to 77 °C
CCOC(=O)n1c(=O)n(CCN2CCN(c3ccccc3OC)CC2)c(=O)c2sccc21	121 to 122 °C
O=c1[nH]c(=O)c2nc3ccccc3nc2[nH]1	300 °C
Cc1oc(-c2ccccc2)nc1CNCc1ccc(C[C@@H](C(=O)O)n2cccc2)cc1	163 to 165 °C
CCCCCCC(=O)c1ccc2c(c1)CC(=O)O2	64 to 67 °C
CC(=O)NC(NC(=O)c1ccccc1C(=O)O)C(=O)NCc1ccccc1 (stereo not given)	186 to 188 °C
CCNC(=O)c1ccccc1[Si](C)(C)C	64 to 66 °C
CCOC(=O)c1c(C(=O)Cc2c(CCNCCc3ccccc3)cc3c(c2OC)OCO3)ccc(OC)c1OC	102 to 104 °C
CC(C)[C@H](NC(=O)CC[C@H](C)CNC(=O)COc1ccccc1)[C@@H](O)c1c(-c2ccccc2)c1=O	74 to 84 °C
C[C@H](O)Cn1c(=O)c(Oc2ccc(F)cc2F)cc2cnc(NC(C)(C)CO)nc21	182 to 184 °C
CS(=O)(=O)c1ccc(-c2c(-c3ccc(Cl)cc3)[nH]c3ccc(Cl)cc23)cc1	269 to 271 °C
CCOC1CN(Cc2ccccc2OC)Cc2cc(OC)c(O)cc21 (stereo not given)	101 to 102 °C
COc1ccc(C=C[N+](=O)[O-])cc1OC1CCCC1	133 to 134 °C
O=C(Nc1ccc(-n2nc(C(F)(F)F)cc2C(F)(F)F)cc1)c1cccc(I)c1	192 to 193 °C
O=c1[nH]c2cc([N+](=O)[O-])ccc2c(=O)n1S(=O)(=O)c1ccc(Cl)cc1	258 to 260 °C
O=C(NC1N=C(c2ccccc2)c2ccccc2NC1=O)c1cccc2ccccc12 (racemic)	162 to 167 °C
Cc1nc(C)c(C)c(NCCNCC(O)COc2ccccc2)n1 (stereo not given)	119 to 121 °C
CC(C)(C)N=NC(C)(C#N)COC(=O)c1ccccc1 (stereo not given)	57 to 59 °C
c1ccc(Nc2nccc(-c3ccc(-c4ccc(N(c5ccccc5)c5ccccc5)cc4)cc3)n2)cc1	> 300 °C
Cc1cc(C(C)(CC(=O)O)c2ccc(O)c(C)c2)ccc1O	130 °C
COc1ccc(C(=O)c2ccc(O)cc2)c(OC(C)(C)C(=O)OC(C)(C)C)c1	172 to 173 °C
CCc1nn(Cc2ccccn2)c2c(=O)[nH]c(-c3cc(S(C)(=O)=O)ccc3OCCOC)nc12	166 to 167 °C
O=C(Nc1ccc(Cl)cc1)NS(=O)(=O)c1ccc2c(c1)CCC2	169 to 172 °C
